From patent publication US12473298B2, “Amide compounds, preparation method therefor, and use thereof in the medical field” (Shanghai Synergy Pharmaceutical Sciences Co., Ltd., priority 2019, dated 2025)
Where two headings read alike, the source gives them in different places.

Legend:
[1] = test system: human diffuse large cell lymphoma B lymphocytes (Pfeiffer cell); assay: Pfeiffer cell proliferation, Calcein AM staining; type: cell-based
Description: The diffuse large cell lymphoma B lymphocytes (Pfeiffer cells) were collected and counted when growing well.

Mutant type EZH2(A677G) = Mutant type EZH2(A677G) (Homo sapiens (Human), UniProt Q15910, A677G); assay: AlphaLISA, mutant type PRC2 complex EZH2(A677G); type: biochemical
[2] = test system: human diffuse large B-cell lymphoma cells (Karpas 422 cell); assay: Karpas 422 cell proliferation, Calcein AM staining; type: cell-based
Mutant type EZH2(Y641N) = Mutant type EZH2(Y641N) (Homo sapiens (Human), UniProt Q15910, Y641N); assay: AlphaLISA, mutant type PRC2 complex EZH2(Y641N); type: biochemical; conditions: read-out: Mutant type EZH2(Y641N) IC50 Nanomoles per Liter
wild-type EZH2 = wild-type EZH2 (Homo sapiens (Human), UniProt Q15910); assay: radiometric assay, activity to wild-type EZH2 of PRC2
Protocol: 25 μL of reaction solution was transferred to a scintillation plate, which was incubated at room temperature for 1 hour (h) and washed with deionized water and 0.1% Tween 20 for three times. A PerkinElmer liquid scintillation/luminescence counter was used to read the value, and GraphPad Prism 5 was used to calculate the median inhibitory concentration (IC50) of the compounds.

Mutant type EZH2(Y641F) = Mutant type EZH2(Y641F) (Homo sapiens (Human), UniProt Q15910, Y641F); assay: AlphaLISA, mutant type PRC2 complex EZH2(Y641F); type: biochemical; conditions: read-out: Mutant type EZH2(Y641F) IC50 Nanomoles per Liter
[3] = Pharmacokinetic experiment in rats; type: in vivo, SD rats
Protocol: A certain amount of compound was weighted and dissolved in 0.1% Tween under vortex and ultrasound, and 0.5% carboxymethyl cellulose sodium (CMC-NA) solution was added to form a uniform solution.

[4] = Homo sapiens, Pfeiffer, data of 14th day, read-out: Pfeiffer Proliferation IC50 Nanomoles per Liter
[5] = read-out: Mutant type EZH2(A677G) IC59 Nanomoles per Liter
[6] = Homo sapiens, KARPAS-422, data of 14th day, read-out: Karpas422 Proliferation IC50 Nanomoles per Liter
[7] = read-out: Wild-type EZH2 IC50 Nanomoles per Liter
[8] = Homo sapiens, Pfeiffer, read-out: Pfeiffer Proliferation IC50 Nanomoles per Liter (nM)
[9] = Homo sapiens, KARPAS-422, read-out: Karpas422 Proliferation IC50 Nanomoles per Liter (nM)
[10] = male, SD, rat, in vivo, iv, 4 mg/kg
[11] = male, SD, rat, in vivo, po, 20 mg/kg

Sequence of Mutant type EZH2(Y641F) (Q15910 whole entry Y641F): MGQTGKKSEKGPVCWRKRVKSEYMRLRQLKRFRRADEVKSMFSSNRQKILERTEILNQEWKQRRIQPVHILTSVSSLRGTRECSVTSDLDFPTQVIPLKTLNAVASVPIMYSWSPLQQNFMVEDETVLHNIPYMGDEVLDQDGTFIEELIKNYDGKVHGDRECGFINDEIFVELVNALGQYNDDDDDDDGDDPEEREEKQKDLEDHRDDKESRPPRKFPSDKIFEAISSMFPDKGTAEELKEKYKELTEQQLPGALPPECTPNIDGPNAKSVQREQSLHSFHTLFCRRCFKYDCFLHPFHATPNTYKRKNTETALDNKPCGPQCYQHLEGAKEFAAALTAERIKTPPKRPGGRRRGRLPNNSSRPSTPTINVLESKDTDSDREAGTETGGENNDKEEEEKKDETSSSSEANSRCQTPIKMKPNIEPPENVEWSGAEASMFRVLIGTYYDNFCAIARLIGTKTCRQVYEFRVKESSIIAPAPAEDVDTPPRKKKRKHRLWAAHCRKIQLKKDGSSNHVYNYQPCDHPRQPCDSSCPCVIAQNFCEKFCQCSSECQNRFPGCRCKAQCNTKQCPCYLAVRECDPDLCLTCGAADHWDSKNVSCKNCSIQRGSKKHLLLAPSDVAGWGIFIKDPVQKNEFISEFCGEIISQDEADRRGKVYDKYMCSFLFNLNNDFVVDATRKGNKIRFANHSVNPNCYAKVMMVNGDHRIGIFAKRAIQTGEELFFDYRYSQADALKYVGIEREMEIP
Sequence of Mutant type EZH2(Y641F) (O75530 whole entry partner): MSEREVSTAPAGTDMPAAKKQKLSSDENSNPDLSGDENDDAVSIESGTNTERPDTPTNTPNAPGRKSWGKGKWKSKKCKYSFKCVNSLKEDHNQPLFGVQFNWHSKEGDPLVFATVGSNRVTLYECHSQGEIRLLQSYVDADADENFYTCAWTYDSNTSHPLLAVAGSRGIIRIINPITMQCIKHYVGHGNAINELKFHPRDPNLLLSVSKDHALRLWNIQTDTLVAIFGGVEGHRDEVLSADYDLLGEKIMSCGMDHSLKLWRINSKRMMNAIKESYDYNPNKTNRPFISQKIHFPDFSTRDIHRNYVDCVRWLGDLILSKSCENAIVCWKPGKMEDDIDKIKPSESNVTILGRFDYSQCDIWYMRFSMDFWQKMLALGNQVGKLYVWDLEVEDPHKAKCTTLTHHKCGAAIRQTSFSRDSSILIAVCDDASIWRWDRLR
Sequence of Mutant type EZH2(Y641F) (Q15022 whole entry partner): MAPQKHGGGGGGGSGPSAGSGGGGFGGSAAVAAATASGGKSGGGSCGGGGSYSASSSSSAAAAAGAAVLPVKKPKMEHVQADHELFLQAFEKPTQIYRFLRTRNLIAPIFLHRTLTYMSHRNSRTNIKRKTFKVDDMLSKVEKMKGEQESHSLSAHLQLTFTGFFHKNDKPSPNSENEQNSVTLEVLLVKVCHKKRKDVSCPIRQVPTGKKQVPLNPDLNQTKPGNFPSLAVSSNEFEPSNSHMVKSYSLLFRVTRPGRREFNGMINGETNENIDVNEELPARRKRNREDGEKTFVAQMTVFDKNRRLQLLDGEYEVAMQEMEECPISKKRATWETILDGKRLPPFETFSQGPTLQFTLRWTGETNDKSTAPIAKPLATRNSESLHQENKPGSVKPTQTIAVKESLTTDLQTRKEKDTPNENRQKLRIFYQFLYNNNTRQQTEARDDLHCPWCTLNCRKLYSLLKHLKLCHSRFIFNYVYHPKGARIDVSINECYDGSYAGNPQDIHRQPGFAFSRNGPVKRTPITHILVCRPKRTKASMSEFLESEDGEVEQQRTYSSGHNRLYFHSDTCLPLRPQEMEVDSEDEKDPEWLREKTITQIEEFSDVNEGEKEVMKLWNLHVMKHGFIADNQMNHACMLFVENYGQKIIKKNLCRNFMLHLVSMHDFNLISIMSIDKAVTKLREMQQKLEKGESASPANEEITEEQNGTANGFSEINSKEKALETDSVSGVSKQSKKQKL
Sequence of Mutant type EZH2(Y641F) (Q09028 whole entry partner): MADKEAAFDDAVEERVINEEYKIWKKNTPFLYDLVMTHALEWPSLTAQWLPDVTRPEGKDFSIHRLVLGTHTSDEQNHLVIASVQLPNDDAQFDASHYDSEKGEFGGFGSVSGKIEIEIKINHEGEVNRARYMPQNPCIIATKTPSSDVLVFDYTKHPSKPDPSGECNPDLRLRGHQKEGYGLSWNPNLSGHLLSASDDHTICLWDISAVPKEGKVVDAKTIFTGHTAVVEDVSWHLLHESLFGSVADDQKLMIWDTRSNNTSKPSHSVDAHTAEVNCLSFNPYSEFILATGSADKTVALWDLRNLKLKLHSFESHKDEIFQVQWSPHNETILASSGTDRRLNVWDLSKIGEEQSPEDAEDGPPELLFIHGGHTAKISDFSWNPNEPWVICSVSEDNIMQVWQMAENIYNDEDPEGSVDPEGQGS
Sequence of Mutant type EZH2(Y641F) (Q6ZN18 whole entry partner): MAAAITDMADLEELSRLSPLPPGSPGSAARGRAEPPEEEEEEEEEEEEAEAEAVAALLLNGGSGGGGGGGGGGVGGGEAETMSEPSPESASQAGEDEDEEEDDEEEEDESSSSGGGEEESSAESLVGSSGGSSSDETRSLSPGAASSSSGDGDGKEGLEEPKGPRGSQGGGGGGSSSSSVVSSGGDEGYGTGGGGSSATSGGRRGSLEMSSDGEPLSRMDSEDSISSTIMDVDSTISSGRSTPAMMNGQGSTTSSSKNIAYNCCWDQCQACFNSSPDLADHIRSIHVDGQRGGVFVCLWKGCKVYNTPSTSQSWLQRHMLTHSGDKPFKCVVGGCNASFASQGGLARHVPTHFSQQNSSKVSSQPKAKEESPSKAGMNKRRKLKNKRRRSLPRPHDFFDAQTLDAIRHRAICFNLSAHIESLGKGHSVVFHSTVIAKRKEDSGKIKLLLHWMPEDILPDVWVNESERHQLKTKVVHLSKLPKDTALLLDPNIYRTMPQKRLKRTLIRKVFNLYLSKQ
Sequence of wild-type EZH2 (Q15910 whole entry): as the sequence (Q15910 whole entry Y641F) above, with F641Y counted along it
Sequence of wild-type EZH2 (O75530 whole entry partner): as the sequence (O75530 whole entry partner) above
Sequence of wild-type EZH2 (Q15022 whole entry partner): as the sequence (Q15022 whole entry partner) above
Sequence of Mutant type EZH2(A677G) (Q15910 whole entry A677G): as the sequence (Q15910 whole entry Y641F) above, with F641Y, A677G counted along it
Sequence of Mutant type EZH2(A677G) (O75530 whole entry partner): as the sequence (O75530 whole entry partner) above
Sequence of Mutant type EZH2(A677G) (Q15022 whole entry partner): as the sequence (Q15022 whole entry partner) above
Sequence of Mutant type EZH2(A677G) (Q09028 whole entry partner): as the sequence (Q09028 whole entry partner) above
Sequence of Mutant type EZH2(A677G) (Q6ZN18 whole entry partner): as the sequence (Q6ZN18 whole entry partner) above
Sequence of Mutant type EZH2(Y641N) (Q15910 whole entry Y641N): as the sequence (Q15910 whole entry Y641F) above, with F641N counted along it
Sequence of Mutant type EZH2(Y641N) (O75530 whole entry partner): as the sequence (O75530 whole entry partner) above
Sequence of Mutant type EZH2(Y641N) (Q15022 whole entry partner): as the sequence (Q15022 whole entry partner) above
Sequence of Mutant type EZH2(Y641N) (Q09028 whole entry partner): as the sequence (Q09028 whole entry partner) above
Sequence of Mutant type EZH2(Y641N) (Q6ZN18 whole entry partner): as the sequence (Q6ZN18 whole entry partner) above

SMILES	IC50 [1, 4] [nM]	IC50 (Mutant type EZH2(A677G); [5]) [pM]	IC50 [2, 6] [nM]	IC50 (Mutant type EZH2(Y641N)) [pM]	IC50 (Mutant type EZH2(Y641F)) [pM]	IC50 (wild-type EZH2; [7]) [pM]	further results
CCN(c1cc(-c2ccc3c(c2)NC(=O)C32CCN(C(C)=O)CC2)cc(C(=O)NCc2c(C)cc(C)[nH]c2=O)c1C)C1CCOCC1 [Example 88]	1.56	510	2.76	420	610	–	IC50 (wild-type EZH2): 960 pM
CCN(c1cc(-c2ccc3c(c2)C2(CCOCC2)C(=O)N3C)cc(C(=O)NCc2c(OC)cc(C)[nH]c2=O)c1C)C1CCN(CC(F)(F)F)CC1 [Example 123, 3-(Ethyl(1-(2,2,2-trifluoroethyl)piperidin-4-yl)amino)-N-((4-methoxy-6-methyl-2-oxo-1,2-dihydropyridin-3-yl)methyl)-2-methyl-5-(1-methyl-2-oxo-2′,3′,5′,6′-tetrahydrospiro[dihydroindole-3,4′-pyran]-5-yl)benzamide]	–	720	–	520	920	1150	IC50 ([1]; data of 14th day, read-out: Pfeiffer Proliferation IC50 Nanomoles per Liter): 2.84 nM; IC50 ([2]; data of 14th day, read-out: Karpas422 Proliferation IC50 Nanomoles per Liter): 3.23 nM
CCN(c1cc(-c2ccc3c(c2)NC(=O)C32CCC(=O)CC2)cc(C(=O)NCc2c(C)cc(C)[nH]c2=O)c1C)C1CCOCC1 [Example 92, N-((4,6-Dimethyl-2-oxo-1,2-dihydropyridin-3-yl)methyl)-5-(2′,4-dioxospiro[cyclohexane-1,3′-dihydroindole]-6′-yl)-3-(ethyl(tetrahydro-2H-pyran-4-yl)amino)-2-methylbenzamide]	1.83	570	2.83	370	680	870	–
CCN(c1cc(-c2ccc3c(c2)C2(CC=C(F)CC2)C(=O)N3)cc(C(=O)NCc2c(C)cc(C)[nH]c2=O)c1C)C1CCOCC1 (stereo not shown) [Example 118, N-((4,6-dimethyl-2-carbonyl-1,2-dihydropyridin-3-yl)methyl)-3-(ethyl(tetrahydro-2H-pyran-4-yl)amino)-5-(4-fluoro-2′-carbonylspiro[cyclohexano-1,3′-dihydroindole]-3-ene-5′-yl)-2-methylbenzamide]	–	–	–	320	580	–	IC50 [1, 8]: 1.05 nM; IC50 (Mutant type EZH2(A677G)): 450 pM; IC50 [2, 9]: 1.68 nM; IC50 (wild-type EZH2): 910 pM
CCN(c1cc(-c2ccc3c(c2)NC(=O)C32CCOCC2)cc(C(=O)NCc2c(OC)cc(C)[nH]c2=O)c1C)C1CCC(N(C)CCOC)CC1 (stereo not shown) [Example 120, 3-(Ethyl(4-((2-methoxyethyl)(methyl)amino)cyclohexyl)amino)-N-((4-methoxy-6-methyl-2-oxo-1,2-dihydropyridin-3-yl)methyl)-2-methyl-5-(2-oxo-2′,3′,5′,6′-tetrahydrospiro[dihydroindole-3,4′-pyran]-6-yl)benzamide]	2.96	530	4.47	480	680	1260	–
CCN(c1cc(-c2ccc3c(c2)C2(CCC(F)CC2)C(=O)N3)cc(C(=O)NCc2c(C)cc(C)[nH]c2=O)c1C)C1CCOCC1 (stereo not shown) [Example 119, 5-(4-Fluoro-2′-carbonylspiro[cyclohexano-1,3′-dihydroindole]-5′-yl)-N-((4,6-dimethyl-2-carbonyl-1,2-dihydropyridin-3-yl)methyl)-3-(ethyl(tetrahydro-2H-pyran-4-yl)amino)-2-methylbenzamide]	–	–	–	630	950	–	IC50 [1, 8]: 3.52 nM; IC50 (Mutant type EZH2(A677G)): 760 pM; IC50 [2, 9]: 4.15 nM; IC50 (wild-type EZH2): 980 pM
CCN(c1cc(-c2cnc3c(c2)NC(=O)C32CCOCC2)cc(C(=O)NCc2c(C)cc(C)[nH]c2=O)c1C)C1CCOCC1 [Example 101, N-((4,6-Dimethyl-2-oxo-1,2-dihydropyridin-3-yl)methyl)-3-(ethyl(tetrahydro-2H-pyran-4-yl)amino)-2-methyl-5-(2′-oxo-1′,2,2′,3,5,6-hexahydrospiro[pyran-4,3′-pyrrolo[3,2-b]pyridine]-6′-yl)benzamide]	2.74	820	3.68	570	950	1160	–
CCN(c1cc(-c2ccc3c(c2)NC(=O)C32CCOCC2)cc(C(=O)NCc2c(OC)cc(C)[nH]c2=O)c1C)C1CCC(N(C)C)CC1 (stereo not shown) [Example 100]	2.73	780	2.85	420	790	–	IC50 (wild-type EZH2): 1050 pM
CCN(c1cc(-c2ccc3c(c2)NC(=O)C32CCOCC2)cc(C(=O)NCc2c(OC)cc(C)[nH]c2=O)c1C)C1CCOCC1OC (stereo not shown) [Example 112, 3-(Ethyl(3-methoxytetrahydro-2H-pyran-4-yl)amino)-N-((4-methoxy-6-methyl-2-oxo-1,2-dihydropyridin-3-yl)methyl)-2-methyl-5-(2-oxo-2′,3′,5′,6′-tetrahydrospiro[dihydroindole-3,4′-pyran]-6-yl)benzamide]	4.17	510	5.78	480	820	1020	AUC ([3]; male, SD, rat, plasma, rats, Intravenous-Dose 4 mg/kg, read-out: Area Curve (AUC, ng/mL · h)): 936 ng·h/mL; half-life ([3]; male, SD, rat, plasma; rats, Intravenous-Dose 4 mg/kg; read-out: Half life T1/2, h) (converted)): 1.26 h; AUC ([3]; male, SD, rat, plasma, rats, Oral-Dose 20 mg/kg, read-out: Area Curve (AUC, ng/mL · h)): 1190 ng·h/mL; Cmax ([3]; male, SD, rat, plasma, rats, Oral-Dose 20 mg/kg, read-out: Blood Drug level (Cmax, ng/mL)): 494 ng/mL; bioavailability ([3]; male, SD, rat, plasma, rats, oral 20 mg/kg vs intravenous 4 mg/kg, read-out: Bioavailability (P %)): 25.5%
CCN(c1cc(-c2ccc3c(c2)NC(=O)C32CCN(C3COC3)CC2)cc(C(=O)NCc2c(C)cc(C)[nH]c2=O)c1C)C1CCOCC1 [Example 84, N-((4,6-dimethyl-2-oxo-1,2-dihydropyridin-3-yl)methyl)-3-(ethyl(tetrahydro-2H-pyran-4-yl)amino)-2-methyl-5-(1′-(oxetan-3-yl)-2-oxospiro[dihydroindole-3,4′-piperidine]-6-yl)benzamide]	1.74	470	1.86	250	630	2130	AUC [3, 10]: 933 ng·h/mL; half-life [3, 10]: 1.38 h; AUC [3, 11]: 1190 ng·h/mL; Cmax [3, 11]: 501 ng/mL; bioavailability [3, 11]: 25.4%
CCN(c1cc(-c2ccc3c(c2)NC(=O)C32CCC(F)(F)CC2)cc(C(=O)NCc2c(C)cc(C)[nH]c2=O)c1C)C1CCOCC1 [Example 91, 5-(4,4-difluoro-2′-oxospiro[cyclohexane-1,3′-dihydroindole]-6′-yl)-N-((4,6-dimethyl-2-oxo-1,2-dihydropyridin-3-yl)methyl)-3-(ethyl(tetrahydro-2H-pyran-4-yl)amino)-2-methylbenzamide]	1.08	710	1.87	240	490	950	–
CCN(c1cc(-c2ccc3c(c2)NC(=O)C32CCNCC2)cc(C(=O)NCc2c(C)cc(C)[nH]c2=O)c1C)C1CCSCC1 [Example 97, N-((4,6-Dimethyl-2-oxo-1,2-dihydropyridin-3-yl)methyl)-3-(ethyl(tetrahydro-2H-thiapyran-4-yl)amino)-2-methyl-5-(2-oxospiro[dihydroindole-3,4′-piperidine]-6-yl)benzamide]	1.53	380	2.7	370	590	850	–
CCN(c1cc(-c2ccc3c(c2)NC(=O)C32CCOCC2)cc(C(=O)NCc2c(C)cc(C)[nH]c2=O)c1C)C1CCN(C)CC1 [Example 81, N-((4,6-dimethyl-2-oxo-1,2-dihydropyridin-3-yl)methyl)-3-(ethyl(1-methylpiperidin-4-yl)amino)-2-methyl-5-(2-oxo-2′,3′,5′,6′-tetrahydrospiro[dihydroindole-3,4′-pyran]-6-yl)benzamide]	4.73	630	3.67	480	890	1370	–
CCN(c1cc(-c2ccc3c(c2)NC(=O)C32CCC(O)CC2)cc(C(=O)NCc2c(C)cc(C)[nH]c2=O)c1C)C1CCOCC1 (stereo not shown) [Example 94, N-((4,6-dimethyl-2-oxo-1,2-dihydropyridin-3-yl)methyl)-3-(ethyl(tetrahydro-2H-pyran-4-yl)amino)-5-(4-hydroxy-2′-oxospiro[cyclohexane-1,3′-dihydroindole]-6′-yl)-2-methylbenzamide]	3.83	770	4.74	620	730	1310	–
CCN(c1cc(-c2ccc3c(c2)NC(=O)C32CCOCC2)cc(C(=O)NCc2c(C)cc(C)[nH]c2=O)c1C)C1CCC(N(C)C2COC2)CC1 (stereo not shown) [Example 121, N-((4,6-dimethyl-2-oxo-1,2-dihydropyridin-3-yl)methyl)-3-(ethyl(4-(methyl(oxetan-3-yl)amino)cyclohexyl)amino)-2-methyl-5-(2-oxo-2′,3′,5′,6′-tetrahydrospiro[dihydroindole-3,4′-pyran]-6-yl)benzamide]	2.36	680	3.54	530	740	1040	–
